What was measured:
[1] = tested on: prostate line LNCap; experiment: In vitro cell culture growth assay (MTS), LNCap; format: cell-based; settings: Homo sapiens, LNCaP, 72 h, LNCap cells, three days after drug treatment
Procedure, shortened: (§1)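 Growth is reported as percent of vehicle-treated control grown in the same plate, with viability determined by metabolic conversion of MTS dye and absorbance read at 490 nm. Compounds were applied one day after plating and left for three days.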

[2] = target: T1, PI3K (Homo sapiens, UniProt P42336); experiment: Fluorescence polarization assay for PI3K; format: biochemical; settings: PI3 Kinase α; read-out: PI3 Kinase α IC50
T1 construct: PI3 Kinase α IC50; other: PI3 Kinase α; other: PI3 Kinase α isoform, fluorescence polarization
Procedure, shortened: (§2)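 Fluorescence-polarization competition readout: after 30–60 min of PIP2/ATP turnover in 1% DMSO, a stop mix with GST-GRP (70 nM) and red probe (10 nM) was added.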

[3] = target: T2, PI3K (Homo sapiens, UniProt P48736); experiment: Fluorescence polarization assay for PI3K; format: biochemical; settings: PI3 Kinase γ; read-out: PI3 Kinase γ IC50
T2 construct: PI3 Kinase γ IC50; other: PI3 Kinase γ; other: PI3 Kinase γ isoform, fluorescence polarization
Procedure, shortened: as §2

[4] = target: T3, Human mTOR (FLAG-TOR) (Homo sapiens, UniProt P42345); experiment: Human mTOR kinase assay with purified enzyme, DELFIA format; format: biochemical
T3 construct: FLAG
Procedure, shortened: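 DELFIA readout: Eu-anti-P(T389)-S6K antibody (40 ng/mL, 1 h) on captured His6-S6K from the stopped reaction. Kinase step used purified FLAG-tagged human mTOR with test compound in HEPES (pH 7.4)/MnCl2/DTT buffer, 2 h at room temperature (linear 1–6 h), terminated by EDTA/EGTA.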

[5] = tested on: breast line MDA468; experiment: In vitro cell culture growth assay (MTS), MDA468; format: cell-based; settings: Homo sapiens, 72 h, MDA468 cells, three days after drug treatment
Procedure, shortened: as §1

T1 sequence (P42336 whole entry, canonical isoform): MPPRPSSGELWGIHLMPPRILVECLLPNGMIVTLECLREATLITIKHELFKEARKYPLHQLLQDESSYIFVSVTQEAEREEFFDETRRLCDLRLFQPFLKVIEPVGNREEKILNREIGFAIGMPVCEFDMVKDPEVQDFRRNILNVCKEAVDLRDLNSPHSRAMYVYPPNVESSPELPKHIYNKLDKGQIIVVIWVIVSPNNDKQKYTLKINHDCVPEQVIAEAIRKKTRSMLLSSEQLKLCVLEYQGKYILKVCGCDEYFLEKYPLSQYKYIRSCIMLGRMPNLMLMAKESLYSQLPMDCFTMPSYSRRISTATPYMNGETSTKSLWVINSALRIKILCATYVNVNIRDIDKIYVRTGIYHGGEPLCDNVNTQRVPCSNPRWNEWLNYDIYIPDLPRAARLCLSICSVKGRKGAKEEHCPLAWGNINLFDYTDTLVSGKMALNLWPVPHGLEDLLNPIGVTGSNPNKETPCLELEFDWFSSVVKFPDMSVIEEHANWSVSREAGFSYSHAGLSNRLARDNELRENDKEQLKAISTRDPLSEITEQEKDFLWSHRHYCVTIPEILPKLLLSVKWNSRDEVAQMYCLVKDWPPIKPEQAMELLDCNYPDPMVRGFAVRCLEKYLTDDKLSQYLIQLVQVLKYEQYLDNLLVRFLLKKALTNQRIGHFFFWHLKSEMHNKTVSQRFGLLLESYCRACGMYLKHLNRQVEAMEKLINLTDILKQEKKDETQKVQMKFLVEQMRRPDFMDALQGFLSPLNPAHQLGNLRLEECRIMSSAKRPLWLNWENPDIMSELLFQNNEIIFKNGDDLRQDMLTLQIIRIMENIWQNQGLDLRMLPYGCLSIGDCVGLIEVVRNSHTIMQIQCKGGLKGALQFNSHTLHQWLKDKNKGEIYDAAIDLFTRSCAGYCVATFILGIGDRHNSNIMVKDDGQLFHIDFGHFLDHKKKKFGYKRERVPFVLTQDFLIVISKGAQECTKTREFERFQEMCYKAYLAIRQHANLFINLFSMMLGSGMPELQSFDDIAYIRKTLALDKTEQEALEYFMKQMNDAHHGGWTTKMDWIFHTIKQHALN
T2 sequence (P48736 whole entry, canonical isoform): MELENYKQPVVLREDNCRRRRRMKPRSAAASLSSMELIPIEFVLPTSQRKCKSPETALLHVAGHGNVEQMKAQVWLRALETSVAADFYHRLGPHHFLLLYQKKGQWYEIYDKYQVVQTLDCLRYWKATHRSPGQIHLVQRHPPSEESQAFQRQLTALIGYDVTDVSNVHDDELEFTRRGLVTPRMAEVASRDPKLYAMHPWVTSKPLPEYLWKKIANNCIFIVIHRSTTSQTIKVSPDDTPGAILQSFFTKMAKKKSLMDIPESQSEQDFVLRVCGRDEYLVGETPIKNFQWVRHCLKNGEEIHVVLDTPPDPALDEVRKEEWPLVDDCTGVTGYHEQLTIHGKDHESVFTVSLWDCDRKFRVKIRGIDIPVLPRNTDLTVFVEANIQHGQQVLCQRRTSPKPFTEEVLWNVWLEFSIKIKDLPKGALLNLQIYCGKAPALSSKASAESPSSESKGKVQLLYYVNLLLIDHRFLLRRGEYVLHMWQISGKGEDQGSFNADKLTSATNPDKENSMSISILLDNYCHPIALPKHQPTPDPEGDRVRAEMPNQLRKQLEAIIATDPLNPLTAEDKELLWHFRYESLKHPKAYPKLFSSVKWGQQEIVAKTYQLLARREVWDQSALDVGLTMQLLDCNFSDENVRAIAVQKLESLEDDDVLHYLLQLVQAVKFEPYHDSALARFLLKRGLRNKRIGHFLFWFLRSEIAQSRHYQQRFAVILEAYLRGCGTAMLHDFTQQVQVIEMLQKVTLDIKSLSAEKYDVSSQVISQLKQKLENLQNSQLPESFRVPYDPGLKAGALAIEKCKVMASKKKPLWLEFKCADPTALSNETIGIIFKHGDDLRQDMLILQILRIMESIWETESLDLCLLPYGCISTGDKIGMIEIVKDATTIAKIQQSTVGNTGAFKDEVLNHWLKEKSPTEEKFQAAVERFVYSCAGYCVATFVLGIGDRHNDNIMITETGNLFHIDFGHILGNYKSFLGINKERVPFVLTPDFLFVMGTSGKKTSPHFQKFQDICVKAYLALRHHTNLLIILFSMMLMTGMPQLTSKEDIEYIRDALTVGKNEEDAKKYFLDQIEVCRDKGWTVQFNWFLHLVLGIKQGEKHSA

SMILES | IC50 [1] [nM] | IC50 [2] [nM] | IC50 [3] [nM] | IC50 [4] [nM] | IC50 [5] [nM]
CC(C)OC(=O)N1CCC(n2ncc3c(N4CC5CCC(C4)O5)nc(-c4ccc(NC(=O)NC5CC5)cc4)nc32)CC1 [Example 70, isopropyl 4-[6-{4-[(cyclopropylcarbamoyl)amino]phenyl}-4-(8-oxa-3-azabicyclo[3.2.1]oct-3-yl)-1H-pyrazolo[3,4-d]pyrimidin-1-yl]piperidine-1-carboxylate] | 3 | 924 | 9500 | 0.44 | 140
CC(C)OC(=O)N1CCC(n2ncc3c(N4CC5CCC(C4)O5)nc(-c4ccc(NC(=O)Nc5ccccc5)cc4)nc32)CC1 [Example 71, isopropyl 4-[4-(8-oxa-3-azabicyclo[3.2.1]oct-3-yl)-6-{4-[(phenylcarbamoyl)amino]phenyl}-1H-pyrazolo[3,4-d]pyrimidin-1-yl]piperidine-1-carboxylate] | 20 | 594 | 4910 | 0.62 | 170
CC(C)OC(=O)N1CCC(n2ncc3c(N4CC5CCC(C4)O5)nc(-c4ccc(NC(=O)Nc5cccnc5)cc4)nc32)CC1 [Example 72, isopropyl 4-[4-(8-oxa-3-azabicyclo[3.2.1]oct-3-yl)-6-{4-[(pyridin-3-ylcarbamoyl)amino]phenyl}-1H-pyrazolo[3,4-d]pyrimidin-1-yl]piperidine-1-carboxylate] | 1.7 | 324 | 2690 | 0.2 | 36
CC(C)OC(=O)N1CCC(n2ncc3c(N4CC5CCC(C4)O5)nc(-c4ccc(NC(=O)Nc5ccncc5)cc4)nc32)CC1 [Example 73, isopropyl 4-[4-(8-oxa-3-azabicyclo[3.2.1]oct-3-yl)-6-{4-[(pyridin-4-ylcarbamoyl)amino]phenyl}-1H-pyrazolo[3,4-d]pyrimidin-1-yl]piperidine-1-carboxylate] | 0.9 | 460 | 672 | 0.23 | 9
COC(=O)Nc1ccc(-c2nc(N3CC4CCC(C3)O4)c3cnn(C4CCN(C(=O)OC(C)C)CC4)c3n2)cc1 [Example 74, isopropyl 4-[6-{4-[(methoxycarbonyl)amino]phenyl}-4-(8-oxa-3-azabicyclo[3.2.1]oct-3-yl)-1H-pyrazolo[3,4-d]pyrimidin-1-yl]piperidine-1-carboxylate] | 200 | 4480 | 9500 | 4.5 | 6000
CCn1ncc2c(N3CC4CCC(C3)O4)nc(-c3cccc(O)c3)nc21 [Example 75, 3-[1-ethyl-4-(8-oxa-3-azabicyclo[3.2.1]oct-3-yl)-1H-pyrazolo[3,4-d]pyrimidin-6-yl]phenol] | 350 | 1060 | > 10000 | 27 | 1300
CCn1ncc2c(N3CC4CCC(C3)O4)nc(-c3ccc4[nH]ccc4c3)nc21 [Example 76, 1-ethyl-6-(1H-indol-5-yl)-4-(8-oxa-3-azabicyclo[3.2.1]oct-3-yl)-1H-pyrazolo[3,4-d]pyrimidine] | 1700 | 6690 | > 10000 | 29 | 7000
CNC(=O)Nc1ccc(-c2nc(N3CC4CCC(C3)O4)c3cnn(Cc4ccccc4)c3n2)cc1 [Example 77, 1-{4-[1-benzyl-4-(8-oxa-3-azabicyclo[3.2.1]oct-3-yl)-1H-pyrazolo[3,4-d]pyrimidin-6-yl]phenyl}-3-methylurea] | 120 | 2100 | > 10000 | 2.2 | 700
CCNC(=O)Nc1ccc(-c2nc(N3CC4CCC(C3)O4)c3cnn(Cc4ccccc4)c3n2)cc1 [Example 78, 1-{4-[1-benzyl-4-(8-oxa-3-azabicyclo[3.2.1]oct-3-yl)-1H-pyrazolo[3,4-d]pyrimidin-6-yl]phenyl}-3-ethylurea] | 170 | > 10000 | > 10000 | 2.6 | 1050
O=C(Nc1ccncc1)Nc1ccc(-c2nc(N3CC4CCC(C3)O4)c3cnn(Cc4ccccc4)c3n2)cc1 [Example 79, 1-{4-[1-benzyl-4-(8-oxa-3-azabicyclo[3.2.1]oct-3-yl)-1H-pyrazolo[3,4-d]pyrimidin-6-yl]phenyl}-3-pyridin-4-ylurea] | 20 | 1980 | > 10000 | 1.9 | 150
Nc1ccc(-c2nc(N3CC4CCC(C3)O4)c3cnn(C4CCC5(CC4)OCCO5)c3n2)cc1 [Example 81, 4-[1-(1,4-dioxaspiro[4.5]dec-8-yl)-4-(8-oxa-3-azabicyclo[3.2.1]oct-3-yl)-1H-pyrazolo[3,4-d]pyrimidin-6-yl]aniline] | 1050 | > 10000 | > 10000 | 54 | 5800
CNC(=O)Nc1ccc(-c2nc(N3CC4CCC(C3)O4)c3cnn(C4CCN(C(=O)C(C)C)CC4)c3n2)cc1 [Example 82, 1-{4-[1-(1-isobutyrylpiperidin-4-yl)-4-(8-oxa-3-azabicyclo[3.2.1]oct-3-yl)-1H-pyrazolo[3,4-d]pyrimidin-6-yl]phenyl}-3-methylurea] | 60 | 1710 | > 10000 | 0.58 | 230
CCNC(=O)Nc1ccc(-c2nc(N3CC4CCC(C3)O4)c3cnn(C4CCN(C(=O)C(C)C)CC4)c3n2)cc1 [Example 83, 1-ethyl-3-{4-[1-(1-isobutyrylpiperidin-4-yl)-4-(8-oxa-3-azabicyclo[3.2.1]oct-3-yl)-1H-pyrazolo[3,4-d]pyrimidin-6-yl]phenyl}urea] | 40 | 2350 | > 10000 | 0.76 | 240
CC(C)C(=O)N1CCC(n2ncc3c(N4CC5CCC(C4)O5)nc(-c4ccc(NC(=O)NCCO)cc4)nc32)CC1 [Example 84, 1-(2-hydroxyethyl)-3-{4-[1-(1-isobutyrylpiperidin-4-yl)-4-(8-oxa-3-azabicyclo[3.2.1]oct-3-yl)-1H-pyrazolo[3,4-d]pyrimidin-6-yl]phenyl}urea] | 1010 | 1980 | > 10000 | 0.56 | 1200
CC(C)C(=O)N1CCC(n2ncc3c(N4CC5CCC(C4)O5)nc(-c4ccc(NC(=O)NCCF)cc4)nc32)CC1 [Example 85, 1-(2-fluoroethyl)-3-{4-[1-(1-isobutyrylpiperidin-4-yl)-4-(8-oxa-3-azabicyclo[3.2.1]oct-3-yl)-1H-pyrazolo[3,4-d]pyrimidin-6-yl]phenyl}urea] | 90 | 2640 | > 10000 | 0.47 | 300
CC(C)C(=O)N1CCC(n2ncc3c(N4CC5CCC(C4)O5)nc(-c4ccc(NC(=O)NC5CC5)cc4)nc32)CC1 [Example 86, 1-cyclopropyl-3-{4-[1-(1-isobutyrylpiperidin-4-yl)-4-(8-oxa-3-azabicyclo[3.2.1]oct-3-yl)-1H-pyrazolo[3,4-d]pyrimidin-6-yl]phenyl}urea] | 80 | 4240 | > 10000 | 0.66 | 350

From patent US8129371B2, “Thienopyrimidine and pyrazolopyrimidine compounds and their use as mTOR kinase and PI3 kinase inhibitors” (Wyeth LLC, priority 2007, dated 2012)
